Reference: patent US6265577A, “Pyrazolopyridylpyridazinone derivatives and process for the preparation thereof” (Kyorin Pharmaceuticals Co., Ltd., priority 1996, dated 2001)
Values after ≈ are worked out from the molar mass of the structure shown.

Legend:
Type in all cases: biochemical
[1] = target: T1, phosphodiesterase II from respiratory tract (Cavia porcellus, UniProt A0A286XUV5); assay: Measurement of phosphodiesterase-inhibiting activity, respiratory tract, II; conditions: guinea pig respiratory tract; 1 μM cAMP or cGMP substrate, 60 minutes at 30° C., EIA
T1 construct: fractions were extracted from respiratory tract and heart of guinea pig; from tissue; host or cells: guinea pig respiratory tract
T1 sequence (A0A286XUV5 22-936): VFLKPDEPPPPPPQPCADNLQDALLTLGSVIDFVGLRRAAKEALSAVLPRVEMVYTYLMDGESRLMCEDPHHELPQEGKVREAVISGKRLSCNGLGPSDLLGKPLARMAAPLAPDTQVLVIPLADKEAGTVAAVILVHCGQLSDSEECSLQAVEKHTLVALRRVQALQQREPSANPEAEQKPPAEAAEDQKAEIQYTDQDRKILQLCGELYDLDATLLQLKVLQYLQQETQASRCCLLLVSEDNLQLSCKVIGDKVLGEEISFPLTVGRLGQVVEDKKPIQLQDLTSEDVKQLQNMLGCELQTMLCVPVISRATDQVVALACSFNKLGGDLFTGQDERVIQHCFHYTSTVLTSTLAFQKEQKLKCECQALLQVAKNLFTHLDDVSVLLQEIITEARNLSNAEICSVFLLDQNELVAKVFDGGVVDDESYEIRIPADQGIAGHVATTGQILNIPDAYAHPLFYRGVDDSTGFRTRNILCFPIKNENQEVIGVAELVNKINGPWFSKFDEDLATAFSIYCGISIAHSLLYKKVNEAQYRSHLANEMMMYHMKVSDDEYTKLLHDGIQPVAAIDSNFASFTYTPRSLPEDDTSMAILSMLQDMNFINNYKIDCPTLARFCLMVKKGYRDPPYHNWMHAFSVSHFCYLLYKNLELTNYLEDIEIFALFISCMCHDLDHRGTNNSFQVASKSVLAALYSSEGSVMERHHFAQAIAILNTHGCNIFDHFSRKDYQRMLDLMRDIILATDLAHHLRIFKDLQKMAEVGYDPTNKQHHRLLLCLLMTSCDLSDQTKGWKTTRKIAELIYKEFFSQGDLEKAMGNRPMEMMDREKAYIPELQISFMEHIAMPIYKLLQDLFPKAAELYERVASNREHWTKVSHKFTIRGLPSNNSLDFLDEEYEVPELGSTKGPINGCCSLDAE
Description: (§1) Measurement of phosphodiesterase-inhibiting activity
(§2) Phosphodiestorase-containing fractions were extracted from respiratory tract and heart of guinea pig according to the method of Nicholson et al (Br. J. Pharmacol., 97, 889-897 (1989)), and used as enzyme solutions. The measurement of phosphodiesterase-inhibiting activity was performed by quantitatively determining (Linden et al, J. Immunol. Methods., 151, 209-216 (1992)) the cyclic AMP (cAMP) or cyclic GMP (cGMP) that remains as a result of enzymic reaction (Thompson et al, Biochemistry, 10, 311-316 (1971)) through enzyme immunoassay (EIA).
(§3) This was performed according to the method of Thompson et al. The enzyme solution was placed in a test tube, and 1 μM of cAMP or cGMP was added as a substrate. After reacting for 60 minutes at 30° C., the test tube was dipped for 2 minutes into boiling bath to inactivate phosphodiesterase, thus stopping the reaction. The testing compound was added to the test tube simultaneously with substrate.
(§4) 2) Quantitative determination through EIA […]

[2] = target: T2, phosphodiesterase III from respiratory tract (Cavia porcellus, UniProt H0VIU9); assay: Measurement of phosphodiesterase-inhibiting activity, respiratory tract, III; conditions: guinea pig respiratory tract; 1 μM cAMP or cGMP substrate, 60 minutes at 30° C., EIA
T2 construct: fractions were extracted from respiratory tract and heart of guinea pig; from tissue; host or cells: guinea pig respiratory tract
T2 sequence (H0VIU9 1-1132): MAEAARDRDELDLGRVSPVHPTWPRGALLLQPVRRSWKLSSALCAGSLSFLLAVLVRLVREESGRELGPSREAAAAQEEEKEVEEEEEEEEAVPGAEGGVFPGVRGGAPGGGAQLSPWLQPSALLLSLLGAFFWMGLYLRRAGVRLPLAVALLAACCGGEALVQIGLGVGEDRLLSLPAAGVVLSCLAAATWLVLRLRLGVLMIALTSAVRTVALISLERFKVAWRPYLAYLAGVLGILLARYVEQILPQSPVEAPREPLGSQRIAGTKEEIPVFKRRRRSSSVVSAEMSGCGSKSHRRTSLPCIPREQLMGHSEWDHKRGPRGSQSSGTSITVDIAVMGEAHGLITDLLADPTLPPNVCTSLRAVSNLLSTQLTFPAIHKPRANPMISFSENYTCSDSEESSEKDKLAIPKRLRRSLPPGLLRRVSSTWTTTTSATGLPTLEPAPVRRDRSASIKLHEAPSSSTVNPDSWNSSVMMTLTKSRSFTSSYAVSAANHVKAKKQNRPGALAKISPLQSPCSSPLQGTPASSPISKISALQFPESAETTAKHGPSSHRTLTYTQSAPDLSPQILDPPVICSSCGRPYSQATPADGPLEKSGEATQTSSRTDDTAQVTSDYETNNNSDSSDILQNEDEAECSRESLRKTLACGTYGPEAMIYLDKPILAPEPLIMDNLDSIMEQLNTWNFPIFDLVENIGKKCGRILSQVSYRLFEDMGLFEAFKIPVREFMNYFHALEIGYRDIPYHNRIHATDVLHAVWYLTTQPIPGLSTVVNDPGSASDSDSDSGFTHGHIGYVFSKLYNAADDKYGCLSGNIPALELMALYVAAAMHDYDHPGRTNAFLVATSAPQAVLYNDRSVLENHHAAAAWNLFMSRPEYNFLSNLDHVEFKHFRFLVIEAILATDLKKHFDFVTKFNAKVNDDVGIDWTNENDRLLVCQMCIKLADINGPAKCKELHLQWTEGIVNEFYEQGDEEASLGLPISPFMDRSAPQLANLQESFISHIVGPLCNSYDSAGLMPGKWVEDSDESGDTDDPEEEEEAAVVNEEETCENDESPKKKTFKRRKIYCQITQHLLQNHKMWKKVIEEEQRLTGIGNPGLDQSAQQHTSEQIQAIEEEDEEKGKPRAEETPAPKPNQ
Description: as §1, §2, §3, §4

[3] = target: phosphodiesterase IV from respiratory tract; assay: Measurement of phosphodiesterase-inhibiting activity, respiratory tract, IV; conditions: guinea pig respiratory tract; 1 μM cAMP or cGMP substrate, 60 minutes at 30° C., EIA
Description: as §1, §2, §3, §4

[4] = target: T3, phosphodiesterase V from respiratory tract (Cavia porcellus, UniProt H0VD23); assay: Measurement of phosphodiesterase-inhibiting activity, respiratory tract, V; conditions: guinea pig respiratory tract; 1 μM cAMP or cGMP substrate, 60 minutes at 30° C., EIA
T3 construct: fractions were extracted from respiratory tract and heart of guinea pig; from tissue; host or cells: guinea pig respiratory tract
Description: as §1, §2, §3, §4

[5] = target: phosphodiesterase I from heart; assay: Measurement of phosphodiesterase-inhibiting activity, heart, I; conditions: guinea pig heart; 1 μM cAMP or cGMP substrate, 60 minutes at 30° C., EIA
Description: as §1, §2, §3, §4

[6] = target: T4, phosphodiesterase II from heart (Cavia porcellus, UniProt A0A286XUV5); assay: Measurement of phosphodiesterase-inhibiting activity, heart, II; conditions: guinea pig heart; 1 μM cAMP or cGMP substrate, 60 minutes at 30° C., EIA
T4 construct: fractions were extracted from respiratory tract and heart of guinea pig; from tissue; host or cells: guinea pig heart
T4 sequence (A0A286XUV5 22-936): T1 sequence (A0A286XUV5 22-936)
Description: as §1, §2, §3, §4

[7] = target: T5, phosphodiesterase III from heart (Cavia porcellus, UniProt H0VIU9); assay: Measurement of phosphodiesterase-inhibiting activity, heart, III; conditions: guinea pig heart; 1 μM cAMP or cGMP substrate, 60 minutes at 30° C., EIA
T5 construct: fractions were extracted from respiratory tract and heart of guinea pig; from tissue; host or cells: guinea pig heart
T5 sequence (H0VIU9 1-1132): T2 sequence (H0VIU9 1-1132)
Description: as §1, §2, §3, §4

CC1CC(=O)NN=C1c1c(C(C)C)nn2ccccc12 (stereo not shown) [Example 36] was tested, and the IC50 [1] was greater than 111 µM, the IC50 [2] was 14.8 µM and the “IC50 Respiratory tract IV” value [3] was 5 µg/mL (≈ 18.5 µM). For the same compound, the IC50 [4] was 0.37 µM, the “IC50 Heart I” value [5] was greater than 30 µg/mL and the IC50 [6] was greater than 111 µM. The IC50 [7] was 18.5 µM.
